Laboratory results: patent US20260183320A1, “METHOD FOR TREATING CANCER BY COMBINING ALKYLATING AGENT PRODRUG AND CELL CYCLE INHIBITOR” (ASCENTAWITS PHARMACEUTICALS, LTD., priority 2022, published 2026)
pIC50: −log10 of the molar value. Entries after “also recorded” stand apart in the source; their conditions may differ. Like-named read-outs stand apart in the source and are kept apart here.

Assays:
[1] = system: p53-deficient (HT29) cell line; test: CTG cell proliferation assay, HT29 cell line; format: cell-based; conditions: for pIC50: read-out: IC50
Protocol: (§1) Each CTG cell proliferation assay included the steps as follows: • 1) An H460 or HT29 cell suspension was added to a 96-well plate at 100 μL per well so that each well contained 2000 or 10000 cells. • 2) The cells were incubated overnight at 37° C. in an incubator with 5% CO2. • 3) Treatment with Compounds
(§2) Combination therapy: 1 μL of adavosertib (at four concentrations), AZD7762 (at four concentrations), palbociclib (at four concentrations) or ceralasertib (at three concentrations) was added to each well and shaken gently until homogeneous mixing.
(§3) 7) Chemiluminescence was read for 1000 ms on a multimode microplate reader. • 8) IC50 (half-maximal inhibitory concentration) values of the compounds were calculated using the GraphPad Prism 5 software. 1.

[2] = system: wild-type p53-expressing (H460) cell line; test: CTG cell proliferation assay, H460 cell line; format: cell-based; conditions: for pIC50: Homo sapiens, read-out: IC50
Protocol: as §1, §2, §3

[3] = HT29 (p53-deficient), various concentrations, also low
[4] = H460 (wild-type p53), both drugs at low concentrations

C[C@H](OP(=O)(N1CC1)N1CC1)c1ccc([N+](=O)[O-])c(Oc2cccc(C(=O)N(C)C)c2)c1 [AST-3424, (S)-1-(3-(3-N,N-dimethylaminocarbonyl)phenoxyl-4-nitrophenyl)-1-ethyl-N,N′-bis(ethylene)phosphoramidate]
additive cytotoxic effect in combination therapy with ceralasertib ([1]; HT29 (p53-deficient), various concentrations): very significant additive effects; also recorded: significant additive cytotoxic effects
additive cytotoxic effect in combination therapy with AZD7762 [1, 3]: significant additive cytotoxic effects
additive cytotoxic effect in combination therapy with adavosertib [1, 3]: significant additive cytotoxic effects
additive cytotoxic effect in combination therapy with palbociclib [1, 3]: significant additive cytotoxic effects
Ratio single/combo ([1]; HT29, 0.44 μM ceralasertib 2 h-pretreatment + AST-3424-72 h-cotreatment): 37.56
Ratio single/combo ([1]; HT29, 0.44 μM ceralasertib + AST-3424 72 h, simultaneously): 51.53
Ratio single/combo ([1]; HT29, AST-3424-2 h-pretreatment + 0.44 μM ceralasertib-72 h-cotreatment): 52.44
Ratio single/combo ([1]; HT29, IC50 monotherapy / IC50 with 50 nM palbociclib): 1.17
Ratio single/combo ([1]; HT29, IC50 monotherapy / IC50 with 100 nM AZD7762): 65.70
Ratio single/combo ([1]; HT29, IC50 monotherapy / IC50 with 100 nM adavosertib): 40.17
Ratio single/combo ([1]; HT29, IC50 monotherapy / IC50 with 130 nM AZD7762): 70.63
Ratio single/combo ([1]; HT29, IC50 monotherapy / IC50 with 130 nM adavosertib): 55.39
Ratio single/combo ([1]; HT29, IC50 monotherapy / IC50 with 160 nM AZD7762): 71.82
Ratio single/combo ([1]; HT29, IC50 monotherapy / IC50 with 160 nM adavosertib): 70.63
Ratio single/combo ([1]; HT29, IC50 monotherapy / IC50 with 1000 nM palbociclib): 1.92
Ratio single/combo ([1]; HT29, IC50 monotherapy / IC50 with 5000 nM palbociclib): 2.34
influence of the order of adding drugs on additive cytotoxic effect with ceralasertib ([1]; HT29, different orders of adding AST-3424 and 0.44 μM ceralasertib): did not show any differences
pIC50 ([1]; HT29, monotherapy, 72 h): 7.13
pIC50 ([1]; Homo sapiens, HT-29, 72 h, HT29, 0.44 μM ceralasertib + AST-3424 72 h, simultaneously): 8.76
pIC50 ([1]; Homo sapiens, HT-29, 72 h, HT29, monotherapy, 72 h): 7.07
pIC50 ([1]; Homo sapiens, HT-29, HT29, 0.44 μM ceralasertib 2 h-pretreatment + AST-3424-72 h-cotreatment): 8.63
pIC50 ([1]; Homo sapiens, HT-29, HT29, AST-3424-2 h-pretreatment + 0.44 μM ceralasertib-72 h-cotreatment): 8.77
pIC50 ([1]; Homo sapiens, HT-29, HT29, monotherapy, first assay): 6.89
pIC50 ([1]; Homo sapiens, HT-29, HT29, monotherapy, order-of-addition assay): 7.05
pIC50 ([1]; Homo sapiens, HT-29, HT29, monotherapy, second assay): 7.00
pIC50 ([1]; Homo sapiens, HT-29, HT29, with 0.04 μM ceralasertib, first assay): 8.49
pIC50 ([1]; Homo sapiens, HT-29, HT29, with 0.04 μM ceralasertib, second assay): 8.79
pIC50 ([1]; Homo sapiens, HT-29, HT29, with 50 nM palbociclib (2 h pretreatment), 72 h): 7.20
pIC50 ([1]; Homo sapiens, HT-29, HT29, with 100 nM AZD7762 (2 h pretreatment), 72 h): 8.89
pIC50 ([1]; Homo sapiens, HT-29, HT29, with 100 nM adavosertib (2 h pretreatment), 72 h): 8.68
pIC50 ([1]; Homo sapiens, HT-29, HT29, with 130 nM AZD7762 (2 h pretreatment), 72 h): 8.92
pIC50 ([1]; Homo sapiens, HT-29, HT29, with 130 nM adavosertib (2 h pretreatment), 72 h): 8.82
pIC50 ([1]; Homo sapiens, HT-29, HT29, with 160 nM AZD7762 (2 h pretreatment), 72 h): 8.93
pIC50 ([1]; Homo sapiens, HT-29, HT29, with 160 nM adavosertib (2 h pretreatment), 72 h): 8.92
pIC50 ([1]; Homo sapiens, HT-29, HT29, with 1000 nM palbociclib (2 h pretreatment), 72 h): 7.42
pIC50 ([1]; Homo sapiens, HT-29, HT29, with 1.3 μM ceralasertib, first assay): 8.85
pIC50 ([1]; Homo sapiens, HT-29, HT29, with 1.3 μM ceralasertib, second assay): 8.92
pIC50 ([1]; Homo sapiens, HT-29, HT29, with 2 μM ceralasertib, first assay): 8.62
pIC50 ([1]; Homo sapiens, HT-29, HT29, with 2 μM ceralasertib, second assay): 8.91
pIC50 ([1]; Homo sapiens, HT-29, HT29, with 5000 nM palbociclib (2 h pretreatment), 72 h): 7.50
additive cytotoxic effect in combination therapy with ceralasertib ([2]; H460 (wild-type p53)): significant additive cytotoxic effect
additive cytotoxic effect in combination therapy with palbociclib ([2]; H460 (wild-type p53), all concentrations): did not exhibit any significant additive cytotoxic effects
additive cytotoxic effect in combination therapy with AZD7762 [2, 4]: not significant
additive cytotoxic effect in combination therapy with adavosertib [2, 4]: not significant
additive cytotoxic effect in combination therapy with ceralasertib [2, 4]: not significant
additive cytotoxic effect in combination therapy with AZD7762 ([2]; H460 (wild-type p53), medium and high concentrations): certain additive cytotoxic effects
additive cytotoxic effect in combination therapy with ceralasertib ([2]; H460 (wild-type p53), medium or high concentration): certain additive cytotoxic effects
additive cytotoxic effect in combination therapy with adavosertib ([2]; H460 (wild-type p53), medium or high concentrations): certain additive cytotoxic effects
Ratio combo/single ([2]; H460, 0.15 μM ceralasertib, first assay): 6.67
Ratio combo/single ([2]; H460, 0.15 μM ceralasertib, second assay): 4.00
Ratio combo/single ([2]; H460, 0.44 μM ceralasertib, first assay): 20.00
Ratio combo/single ([2]; H460, 0.44 μM ceralasertib, second assay): 24.00
Ratio combo/single ([2]; H460, 1.3 μM ceralasertib, first assay): 13.33
Ratio combo/single ([2]; H460, 1.3 μM ceralasertib, second assay): 12.00
Ratio single/combo ([2]; H460, IC50 monotherapy / IC50 with 0.5 nM AZD7762): 1.03
Ratio single/combo ([2]; H460, IC50 monotherapy / IC50 with 0.5 nM adavosertib): 1.10
Ratio single/combo ([2]; H460, IC50 monotherapy / IC50 with 6.4 nM AZD7762): 0.73
Ratio single/combo ([2]; H460, IC50 monotherapy / IC50 with 6.4 nM adavosertib): 1.26
Ratio single/combo ([2]; H460, IC50 monotherapy / IC50 with 160 nM AZD7762): 2.13
Ratio single/combo ([2]; H460, IC50 monotherapy / IC50 with 160 nM adavosertib): 1.79
Ratio single/combo ([2]; H460, IC50 monotherapy / IC50 with 800 nM adavosertib): 2.27
Ratio combo/single ([2]; H460, IC50 with 0.05 nM palbociclib / IC50 monotherapy): 1.12
Ratio combo/single ([2]; H460, IC50 with 0.64 nM palbociclib / IC50 monotherapy): 1.12
Ratio combo/single ([2]; H460, IC50 with 400 nM palbociclib / IC50 monotherapy): 1.24
pIC50 ([2]; NCI-H460, 72 h, H460, monotherapy, 72 h): 9.47
pIC50 ([2]; NCI-H460, H460, monotherapy, first assay): 9.40
pIC50 ([2]; NCI-H460, H460, monotherapy, second assay): 9.62
pIC50 ([2]; NCI-H460, H460, with 0.05 nM palbociclib (2 h pretreatment), 72 h): 9.42
pIC50 ([2]; NCI-H460, H460, with 0.5 nM AZD7762 (2 h pretreatment), 72 h): 9.48
pIC50 ([2]; NCI-H460, H460, with 0.5 nM adavosertib (2 h pretreatment), 72 h): 9.51
pIC50 ([2]; NCI-H460, H460, with 0.64 nM palbociclib (2 h pretreatment), 72 h): 9.42
pIC50 ([2]; NCI-H460, H460, with 6.4 nM AZD7762 (2 h pretreatment), 72 h): 9.33
pIC50 ([2]; NCI-H460, H460, with 6.4 nM adavosertib (2 h pretreatment), 72 h): 9.57
pIC50 ([2]; NCI-H460, H460, with 0.15 μM ceralasertib, first assay): 10.22
pIC50 ([2]; NCI-H460, H460, with 0.15 μM ceralasertib, second assay): 10.22
pIC50 ([2]; NCI-H460, H460, with 160 nM AZD7762 (2 h pretreatment), 72 h): 9.80
pIC50 ([2]; NCI-H460, H460, with 160 nM adavosertib (2 h pretreatment), 72 h): 9.72
pIC50 ([2]; NCI-H460, H460, with 400 nM palbociclib (2 h pretreatment), 72 h): 9.38
pIC50 ([2]; NCI-H460, H460, with 0.44 μM ceralasertib, first assay): 10.70
pIC50 ([2]; NCI-H460, H460, with 0.44 μM ceralasertib, second assay): 11.00
pIC50 ([2]; NCI-H460, H460, with 800 nM adavosertib (2 h pretreatment), 72 h): 9.82
pIC50 ([2]; NCI-H460, H460, with 1.3 μM ceralasertib, first assay): 10.52
pIC50 ([2]; NCI-H460, H460, with 1.3 μM ceralasertib, second assay): 10.70
